In patent publication US20250179059A1 (The Regents of the University of California, priority 2021, published 2025):
pIC50: −log10 of the molar value.

biological target: T1, human BRD4 bromodomain II (Homo sapiens, UniProt O60885); assay: Bromodomain binding assay (AlphaScreen), BRD4 BDII; conditions: AlphaScreen assay, Table C2; read-out: BRD4 BDII IC50
T1 construct: human BRD4 bromodomain II [based on Genbank NM_058243, residues 349-460]; host or cells: E. coli
Method in brief: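 First, His6-tagged BRD4 bromodomain (BDI residues 44-170 or BDII residues 349-460) is incubated with compound for 30 min at room temperature. Next the biotinylated H4 peptide is added for 30 min, then donor and acceptor beads, with 60 min in the dark before AlphaScreen reading and IC50 fitting.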

SMILES | pIC50
CC(=O)Nc1ccc(-c2cccc(-c3cccc(-c4ccc(N)nc4)c3)c2O)cc1F [Example 202, N-(3″-(6-aminopyridin-3-yl)-3-fluoro-2′-hydroxy-[1,1′:3′,1″-terphenyl]-4-yl)acetamide] | < 7.00
O=C1CCCN1c1c(F)cc(-c2cccc(-c3ccncc3)c2O)cc1F [Example 207, 1-(3,5-difluoro-2′-hydroxy-3′-(pyridin-4-yl)-[1,1′-biphenyl]-4-yl)pyrrolidin-2-one] | < 7.00
CC(=O)Nc1ccc(-c2cccc(-c3cccc(-c4nc[nH]n4)c3)c2O)cc1F [Example 208, N-(3-fluoro-2′-hydroxy-3″-(1H-1,2,4-triazol-3-yl)-[1,1′:3′,1″-terphenyl]-4-yl)acetamide] | < 7.00
CC(=O)Nc1ccc(-c2cccc(-c3ccnc(C(N)=O)c3)c2O)cc1F [Example 211, 4-(4′-acetamido-3′-fluoro-2-hydroxy-[1,1′-biphenyl]-3-yl)picolinamide] | < 7.00
CC(=O)Nc1ccc(-c2cccc(-c3csc(N4CCNCC4)n3)c2O)cc1F [Example 212, N-(3-Fluoro-2′-hydroxy-3′-(2-(piperazin-1-yl)thiazol-4-yl)-[1,1′-biphenyl]-4-yl)acetamide] | < 7.00
O=C1CCCN1c1ccc(-c2cccc(-c3ccncc3)c2O)cc1Cl [Example 213, 1-(3-Chloro-2′-hydroxy-3′-(pyridin-4-yl)-[1,1′-biphenyl]-4-yl)pyrrolidin-2-one 2,2,2-trifluoroacetate] | 7.00 to 8.00
CC(=O)Nc1ccc(-c2cccc(-c3cccc(N4CC5(CNC5)C4)c3)c2O)cc1F [Example 219, N-(3-fluoro-2′-hydroxy-3″-(2,6-diazaspiro[3.3]heptan-2-yl)-[1,1′:3′,1″-terphenyl]-4-yl)acetamide] | 7.00 to 8.00
CC(=O)Nc1ccc(-c2cccc(-c3cccc(N4CC(CN)C4)c3)c2O)cc1F [Example 220, N-(3″-(3-(aminomethyl)azetidin-1-yl)-3-fluoro-2′-hydroxy-[1,1′:3′,1″-terphenyl]-4-yl)acetamide] | 7.00 to 8.00
O=C1CCCCN1c1ccc(-c2cccc(-c3cccc(N4CCNCC4)c3)c2O)cc1F [Example 223, 1-(3-fluoro-2′-hydroxy-3″-(piperazin-1-yl)-[1,1′:3′,1″-terphenyl]-4-yl)piperidin-2-one] | 7.00 to 8.00
CC(=O)Nc1ccc(-c2cccc(-c3ccnc(N4CC(O)C4)c3)c2O)cc1F [Example 225, N-(3-fluoro-2′-hydroxy-3′-(2-(3-hydroxyazetidin-1-yl)pyridin-4-yl)-[1,1′-biphenyl]-4-yl)acetamide] | < 7.00
CC(=O)Nc1ccc(-c2cccc(-c3cccc(-c4nn[nH]n4)c3)c2O)cc1F [Example 227, N-(3-fluoro-2′-hydroxy-3″-(2H-tetrazol-5-yl)-[1,1′:3′,1″-terphenyl]-4-yl)acetamide] | < 7.00
CC(=O)Nc1ccc(-c2cccc(-c3cccc(-c4c[nH]cn4)c3)c2O)cc1F [Example 229, N-(3-fluoro-2′-hydroxy-3″-(1H-imidazol-4-yl)-[1,1′:3′,1″-terphenyl]-4-yl)acetamide] | 7.00 to 8.00
CC(=O)Nc1ccc(-c2cccc(-c3ccnc(N4CC(N)C4)c3)c2O)cc1F [Example 232, N-(3′-(2-(3-aminoazetidin-1-yl)pyridin-4-yl)-3-fluoro-2′-hydroxy-[1,1′-biphenyl]-4-yl)acetamide] | 7.00 to 8.00
CC(=O)Nc1ccc(-c2cccc(-c3cc(N4CCNCC4)ccn3)c2O)cc1F [Example 233, N-(3-fluoro-2′-hydroxy-3′-(4-(piperazin-1-yl)pyridin-2-yl)-[1,1′-biphenyl]-4-yl)acetamide] | < 7.00
CC(=O)Nc1ccc(-c2cccc(-c3cccc(-c4cn[nH]n4)c3)c2O)cc1F [Example 243, N-(3-fluoro-2′-hydroxy-3″-(2H-1,2,3-triazol-4-yl)-[1,1′:3′,1″-terphenyl]-4-yl)acetamide] | < 7.00
CC(=O)Nc1ccc(-c2cccc(-c3cccc(-c4cn[nH]c4)c3)c2O)cc1F [Example 246, N-(3-fluoro-2′-hydroxy-3″-(1H-pyrazol-4-yl)-[1,1′:3′,1″-terphenyl]-4-yl)acetamide] | < 7.00
CC(=O)Nc1ccc(-c2cc(F)cc(-c3ccc(F)c(C4=CCNCC4)c3)c2O)cc1F [Example 247, N-(3,4″,5′-trifluoro-2′-hydroxy-3″-(1,2,3,6-tetrahydropyridin-4-yl)-[1,1′:3′,1″-terphenyl]-4-yl)acetamide] | 8.00 to 9.00
CC(=O)Nc1ccc(-c2cccc(-c3ccnc(N4CCNCC4)c3)c2C(F)F)cc1F [Example 250, N-(2′-(difluoromethyl)-3-fluoro-3′-(2-(piperazin-1-yl)pyridin-4-yl)-[1,1′-biphenyl]-4-yl)acetamide] | < 7.00

Continued, values first:

pIC50 | SMILES
8.00 to 9.00 | CC(=O)Nc1ccc(-c2cccc(-c3cccc(N4CCC(CN)C4)c3)c2O)cc1F (stereo not drawn) [Example 203, N-(3″-(3-(aminomethyl)pyrrolidin-1-yl)-3-fluoro-2′-hydroxy-[1,1′:3′,1″-terphenyl]-4-yl)acetamide]
8.00 to 9.00 | CC(=O)Nc1ccc(-c2cccc(-c3cccc(-c4ccnc(N)c4)c3)c2O)cc1F [Example 204, N-(3″-(2-aminopyridin-4-yl)-3-fluoro-2′-hydroxy-[1,1′:3′,1″-terphenyl]-4-yl)acetamide]
8.00 to 9.00 | CC(=O)Nc1ccc(-c2cccc(-c3ccnc(C(=O)O)c3)c2O)cc1F [Example 205, 4-(4′-acetamido-3′-fluoro-2-hydroxy-[1,1′-biphenyl]-3-yl)picolinic acid]
8.00 to 9.00 | CC(=O)Nc1ccc(-c2cccc(-c3cccc(C4CCNCC4)c3)c2O)cc1F [Example 210, N-(3-fluoro-2′-hydroxy-3″-(piperidin-4-yl)-[1,1′:3′,1″-terphenyl]-4-yl)acetamide]
8.00 to 9.00 | CC(=O)Nc1ccc(-c2cccc(-c3cc(N4CCNCC4)cc(C(F)(F)F)c3)c2O)cc1F [Example 215, N-(3-fluoro-2′-hydroxy-3″-(piperazin-1-yl)-5″-(trifluoromethyl)-[1,1′:3′,1″-terphenyl]-4-yl)acetamide]
8.00 to 9.00 | O=C1CCCN1c1ccc(-c2cc(F)cc(-c3ccnc(N4CCNCC4)c3)c2O)cc1F [Example 216, 1-(3,5′-Difluoro-2′-hydroxy-3′-(2-(piperazin-1-yl)pyridin-4-yl)-[1,1′-biphenyl]-4-yl)pyrrolidin-2-one]
8.00 to 9.00 | CC(=O)Nc1ccc(-c2cccc(-c3cc(N4CCNCC4)nc(N4CCNCC4)c3)c2O)cc1F [Example 218, N-(3′-(2,6-di(piperazin-1-yl)pyridin-4-yl)-3-fluoro-2′-hydroxy-[1,1′-biphenyl]-4-yl)acetamide]
8.00 to 9.00 | CC(=O)Nc1ccc(-c2cccc(-c3cccc(N4CCC5(CCNC5)C4)c3)c2O)cc1F (stereo not drawn) [Example 221, N-(3-fluoro-2′-hydroxy-3″-(2,7-diazaspiro[4.4]nonan-2-yl)-[1,1′:3′,1″-terphenyl]-4-yl)acetamide]
8.00 to 9.00 | O=C1NCCN1c1ccc(-c2cccc(-c3ccnc(N4CCNCC4)c3)c2O)cc1Cl [Example 228, 1-(3-chloro-2′-hydroxy-3′-(2-(piperazin-1-yl)pyridin-4-yl)-[1,1′-biphenyl]-4-yl)imidazolidin-2-one]
8.00 to 9.00 | CC(=O)Nc1ccc(-c2cccc(-c3ccc(Cl)c(N4CCNCC4)c3)c2O)cc1F [Example 241, N-(4″-chloro-3-fluoro-2′-hydroxy-3″-(piperazin-1-yl)-[1,1′:3′,1″-terphenyl]-4-yl)acetamide]
8.00 to 9.00 | CC(=O)Nc1ccc(-c2cc(F)cc(-c3ccc(Cl)c(N4CCNCC4)c3)c2O)cc1F [Example 242, N-(4″-chloro-3,5′-difluoro-2′-hydroxy-3″-(piperazin-1-yl)-[1,1″-terphenyl]-4-yl)acetamide]

tested on: human SKM-1 acute myeloid leukemia cells; assay: SKM-1 antiproliferation cell-based assay (ATPlite); conditions: Homo sapiens, SKM-1, SKM-1 antiproliferation assay
Method: The cell-based assay indirectly measures cell density (and therefore proliferation and/or survival) by detecting total ATP concentration in a homogeneous format. Briefly, human SKM-1 acute myeloid leukemia cells (Leibniz Institute DSMZ #ACC 547) proliferating in log phase are collected by centrifugation, re-suspended in culture media (RPMI 1640/15% FBS/100 U/mL penicillin/100 μg/mL streptomycin) and diluted to 34722 cells/mL in media after counting. Then 180 μL cells are plated per well into a 96-well tissue-culture treated, clear bottom plate (Coming #3603). A 96-well compound plate (Corning #3357) is then generated by serial dilution of compounds into DMSO over nine concentrations and adding separate negative (DMSO) and positive control (reference compound) wells. Each compound concentration is tested in triplicate. First, 1 μL from each well of the compound plate is added to 99 μL culture media in an intermediate plate and mixed by pipetting. Then 20 μL of the diluted compounds in media are added to the assay plate containing the cells. The assay plate is maintained for 4 days in a standard cell culture incubator. At the end of the incubation period, 100 μL ATPlite Istep (PerkinElmer) is added to the assay plate wells, and the resulting luminescence is detected using an Infinite M1000 or a Spark multimode plate reader (Tecan). Data analysis is performed in Prism (GraphPad Software). For curve fitting, a non-linear regression, variable slope equation is used to calculate cellular IC50s.

GI50 | SMILES
30 to 300 nM | Cc1cc(-c2ccc(N3CCCC3=O)c(Cl)c2)c(O)c(-c2cccc(N3CCN(C(C)(C)C)CC3)c2)n1 [Example 1041, 1-(4-(2-(3-(4-(tert-butyl)piperazin-1-yl)phenyl)-3-hydroxy-6-methylpyridin-4-yl)-2-chlorophenyl)pyrrolidin-2-one]
300 to 3000 nM | Cn1ccn(-c2ccc(-c3cc(C=O)cc(-c4cccc(N5CCN(C(C)(C)C)CC5)c4)c3O)cc2Cl)c1=O [Example 1042, 3″-(4-(tert-Butyl)piperazin-1-yl)-3-chloro-2′-hydroxy-4-(3-methyl-2-oxo-2,3-dihydro-1H-imidazol-1-yl)-[1,1′:3′,1″-terphenyl]-5′-carbaldehyde]
30 to 300 nM | Cc1ncc(-c2nc(F)cc(-c3ccc(-n4ccn(C)c4=O)c(Cl)c3)c2O)cc1N1CCN(C(C)(C)C)CC1 [Example 1043, 1-(4-(5′-(4-(tert-Butyl)piperazin-1-yl)-6-fluoro-3-hydroxy-6′-methyl-[2,3′-bipyridin]-4-yl)-2-chlorophenyl)-3-methyl-1H-imidazol-2(3H)-one]

same assay, conditions: SKM-1 antiproliferation assay

GI50 | SMILES
0.3 to 30 nM | Cc1ncc(-c2cc(F)cc(-c3ccc(-n4ccn(C)c4=O)c(Cl)c3)c2O)cc1N1CC2(CC2)[C@](C)(O)C1 [Example 874]
